Reference: PubChem BioAssay AID2423 (Broad Institute, 2010)
Inconclusive results are not listed. Calls of active or inactive are those of the source. No rule for the calls is given here.

Test system: C. albicans CaCi-8 + fluconazole, Alamar Blue growth, 48 h
Experiment: resistant C. albicans growth inhibition with fluconazole, dose response, CaCi-8 strain, Alamar Blue fluorescence (AID 2423)

SMILES | EC50
O=C1C2CCN(CC2)C1Cc1ccc(OCCOc2ccccc2)cc1 (stereo not given) | 1680 nM
Cc1ccc(S(=O)(=O)c2ncccc2[N+](=O)[O-])cc1 | 1090 nM
COc1cccc(C(C(=O)NC2CCCC2)N(C(=O)c2ccco2)c2ccc(-n3cnnn3)c(C)c2)c1OC (stereo not given) | > 15000 nM (inactive)
COc1ccc(NC(=O)C(=O)NNC(=O)c2ccc(Cl)cc2Cl)cc1 | 888 nM
Cc1cccc(-n2c(SCc3cc(=O)n4ccsc4n3)nc3ccccc32)c1 | > 15000 nM (inactive)
Oc1ccc2ccccc2c1/C=N/Nc1nnc(-c2ncc[nH]2)c2ccccc12 | 382 nM
COc1cccc(NC(=O)c2ccc3nc(C)sc3c2)c1 | 1490 nM
Cc1cc(NC(=O)c2ccc([N+](=O)[O-])o2)ccc1NC(=O)c1ccco1 | 338 nM
O=C(Nc1cccc(NC(=O)c2ccccc2Cl)c1)c1ccc([N+](=O)[O-])o1 | 716 nM
CC[n+]1c(/C=C/N(C)c2ccccc2)n(-c2ccccc2)c2ccc(-c3nc4ccccc4s3)cc21 | 1200 nM
Cc1cc(O)ccc1NC(=S)NC(=O)c1cncc(Br)c1 | 727 nM
O=S(=O)(Nc1nc2ccccc2s1)c1ccc(Br)s1 | 1730 nM
Cc1oc2ccc(OC(=O)N(C)C)cc2c1C(=O)OC(C)C | 4000 nM
Cn1c(=O)cc(OCCCC(=O)Nc2cccnc2)c2ccccc21 | > 16000 nM (inactive)
CN1CCN(C(c2ccccn2)c2cc(Cl)c3cccnc3c2O)CC1 (stereo not given) | 1170 nM
O=C(NCCc1ccccc1)c1c(O)c2cccc3c2n(c1=O)CC3 | > 15000 nM (inactive)
CC1Oc2cc3oc4c(O)c(O)ccc4c(=O)c3c(O)c2C1(C)C (stereo not given) | 14400 nM
COc1ccc(-n2cccc2/C=C2\C(=N)N3N=C(C(C)C)SC3=NC2=O)cc1 | 16300 nM
O=C(N/N=C\c1c(O)ccc2ccccc12)c1cncc(Br)c1 | 689 nM
O=[N+]([O-])c1cc(O)c2ncccc2c1 | 763 nM
CC(C)(C)C(=O)NC(=S)NNC(=O)C(c1ccccc1)c1ccccc1 | 2160 nM
O=C(NNC(=O)c1ccc2ccccc2c1O)c1ccccc1Cl | 6110 nM
O=C(COc1ccc2c(c1)CCC2)NCc1cccc(Cl)c1 | 10900 nM

SMILES | EC50
COc1cccc(/C=N/Nc2ncnc3scc(-c4ccccc4)c23)c1O | 1190 nM
CCCCCCCCCCCCCCCC[N+](C)(C)C | > 15000 nM (inactive)
O=C(N/N=C/c1sc(N2CCCCC2)nc1-c1cccs1)c1cccnc1 | 1470 nM
Cc1ccc(S(=O)(=O)/N=C(/c2ccccc2)N2CCOCC2)c(C)c1 | > 16000 nM (inactive)
O=C(NNc1nc2ccc(Cl)cc2s1)c1cc(-c2cccs2)nc2ccccc12 | 400 nM
O=C(NC(=S)Nc1ccccc1O)c1ccc(Cl)cc1Cl | 624 nM
NC[C@@H]1O[C@H](C23CC4CC(CC(C4)C2)C3)Cc2c1ccc(O)c2O | 3360 nM
BrC(=C\c1ccccc1)/C=N/n1cnnc1 | 1570 nM
Cc1onc(-c2ccccc2)c1C(=O)NC(=S)NNC(=O)c1cccnc1 | > 16000 nM (inactive)
Cc1cccc(Sc2nc(-c3ccccc3)ncc2C(=O)O)c1 | > 15000 nM (inactive)
N#Cc1ccc(-c2nc3cc(Cl)ccc3c(=O)n2O)cc1 | 3570 nM
C=CCn1c(N)nc2ccccc21 | 2720 nM
Nc1nonc1-n1nnc(C(=O)N/N=C/c2cc(Cl)ccc2O)c1CN1CCCCCC1 | 1820 nM
CCCOc1cccc(C(=O)N/N=C/c2coc3ccccc3c2=O)c1 | > 15000 nM (inactive)
COc1cnc(-c2ccccn2)nc1NC(C)C | > 15000 nM (inactive)
CCN1/C(=C/c2cccc[n+]2C)Sc2ccc(OC)cc21 | 10700 nM
Cc1ccc(NC(=O)c2sc3nc(N)c(C#N)cc3c2N)cc1 | 625 nM
O=C(CCS(=O)(=O)Cc1ccccc1)Nc1nnc(C(F)(F)F)s1 | 746 nM
c1ccc(-c2ccccc2OCCCN2CCCCCC2)cc1 | 6610 nM
O=C(/C=C/c1ccc([N+](=O)[O-])o1)NNC(=O)c1ccc(F)cc1 | 1190 nM
O=C(NCc1ccc(Cl)cc1)c1n[nH]c([N+](=O)[O-])c1Cl | > 16000 nM (inactive)
COc1ccc(-c2cc(-c3c(O)c(OC)c4occc4c3OC)[nH]n2)cc1OC | > 16000 nM (inactive)
